Laboratory results taken from US7045343B2, “Sterilization indicator test packs” (3M Innovative Properties Company, priority 1998, dated 2006).

Key:
[1] = system: enzyme associated with Bacillus stearothermophilus spores; test: Rapid enzyme fluorescence readout of indicators after hydrogen peroxide plasma sterilization; assay type: biochemical; settings: for FLUORESCENCE - PERCENT POSITIVE 1 HR / FLUORESCENCE - PERCENT POSITIVE 2 HR / FLUORESCENCE - PERCENT POSITIVE 3 HR / FLUORESCENCE - PERCENT POSITIVE 4 HR / FLUORESCENCE - PERCENT POSITIVE 5 HR: 1–22 min diffusion;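 as to FLUORESCENCE - PERCENT POSITIVE 5 HR: percent of growth-positive indicators that were also fluorescence-positive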
Method: (§1) Sterilization indicators for Examples 6–9 were prepared as described above with the exception that closure member 22 of the sterilization indicator was constructed of TYVEK™ high-density polyethylene fiber material, commercially available from E.I. du Pont de Nemours and Co., Wilmington, Del.
(§2) Sterilization indicators were made as described above with spores that had been coated with each of the chemicals and concentrations listed in Table 6. The indicators were placed in instrument trays and exposed to a hydrogen peroxide plasma sterilization procedure at 45–55° C. in a STERRAD™ 100SI GMP Sterilizer, obtained from Advanced Sterilization Products Co., Irvine, Calif. During the sterilization procedure a vacuum was drawn in the sterilization chamber for 5–6 minutes until the pressure was reduced to 300 mTorr. A 1.8 ml aliquot of an aqueous solution of 58–60% hydrogen peroxide was then injected into the sterilization chamber over a period of about 6 minutes, yielding an empty chamber concentration of […] hydrogen peroxide, and hydrogen peroxide vapor was allowed to diffuse throughout the chamber for 1–22 minutes at 6–10 Torr. A vacuum was then drawn, reducing the pressure to 500 mTorr and removing all detectable hydrogen peroxide vapor from the chamber.
(§3) After exposure to the sterilization procedure, the indicators were removed from the sterilizer and the inner containers containing the enzyme substrate and nutrient medium were crushed. The indicators were then incubated at 60° C. and examined for fluorescence every hour for 5 hours using a 3M™ ATTEST™ Model 190 Rapid Autoreader, commercially available from 3M Company, St. Paul, Minn. Additionally, spore growth, as indicated by a color change from purple to yellow, was determined visually after 168 hours of incubation.
(§4) The number of growth positive indicators detected after 168 hours of incubation is recorded in Table 6.
as §2, with “7.” for “6.”
as §2, with “8.” for “6.”, “chamber. […]” for “chamber.”

[2] = system: Bacillus stearothermophilus spores; test: Spore outgrowth (color change) of indicators after hydrogen peroxide plasma sterilization; assay type: cell-based; settings: 1–22 min diffusion
Method: as §1, §2, §3, §4
as §2, with “7.” for “6.”
as §2, with “8.” for “6.”, “chamber. […]” for “chamber.”

[3] = system: enzyme associated with Bacillus stearothermophilus spores; test: Rapid enzyme fluorescence readout of dual rapid readout indicators after prevacuum steam sterilization; assay type: biochemical; settings: 4-pulse prevacuum steam 121° C.
Method: (§5) The indicators prepared for the Examples were dual rapid readout indicators that provided both a rapid, enzyme-based efficacy test and a confirmatory spore outgrowth test. Spores coated on the carrier strip 16 served as the source of active enzyme whose activity was measured by the rapid enzyme test. These same spores were then incubated in the spore outgrowth portion of the test.
(§6) Bacillus stearothermophilus, commercially available as ATCC 7953 from American Type Culture Collection, Rockville, Md., was grown overnight (16 hours) at 58° C. in tryptic soy broth. This culture was used to inoculate the surface of agar plates consisting of 8 g/l nutrient broth, 4 g/l yeast extract, 0.1 g/l manganese chloride and 20 g/l agar at pH 7.2. Plates were incubated at 58° C. for 72 hours. Spores were scraped from the plates and suspended in sterile distilled water. The spores were separated from the vegetative debris by centrifuging the suspension at 7000 rpm and 4° C. for 20 minutes. The supernatant was poured off and the spores were resuspended in sterile distilled water. The cleaning procedure was repeated several times. After the final wash, the spores were suspended in sterile distilled water, at a concentration of approximately 1×10^8 spores per milliliter.
(§7) The spores were then treated with the chemicals identified in Tables 1–5. All chemicals tested were obtained from commercial sources. The spores were centrifuged at 6000 rpm for 10 minutes. The supernatant and coating chemical mixtures were heated at 60–80° C. for several minutes and vortexed to get the material into solution. The spores were then mixed into the sterilant-resistant chemical solution. The sterilant-resistant chemical solution was applied to 5×25 mm, 591 A paper strips (Schleicher & Schuell, Inc., Keene, N.H.) by pipetting 10–15 microliters to each strip for a final population of about 1×10^6 spores per strip. The strips were dried 16 hours at 37° C.
(§8) The treated spore strips were placed on the bottom of the outer container 12 of the indicator 10 and a barrier was inserted between the spore strip 16 and the inner container 18, which contained enzyme substrate. A […] ( 11/16 inch) disc of polypropylene blown microfiber material, with a weight of 200 g/m^2, commercially available as “THINSULATE™ 200-B brand Thermal Insulation” from 3M Company, St. Paul, Minn., was used as the barrier. The inner container 18 contained 0.67 ml nutrient medium, consisting of 17 g of a bacteriological peptone and a 0.17 g/l of L-alanine, as well as 0.1 g 4-methylumbelliferyl-alpha-D-glucoside, commercially available from Sigma Chemical Company, St. Louis, Mo., dissolved in 200 microliters of N,N-dimethylformamide, and 0.03 g bromocresol purple pH indicator dye, per liter of water. The pH of the enzyme substrate and nutrient medium solution was adjusted to 7.6 with 0.1N sodium hydroxide.
(§9) Sterilization indicators were made as described above with each of the chemicals and concentrations described in Table 1. Control indicators were made using untreated spores. The indicators were placed in metal instrument trays and exposed at 121° C. in a Getinge Steam Sterilizer (Getinge International, Inc., 1100 Towbin Ave., Lakewood, N.J.) using a 4-pulse prevacuum cycle at 121° C. with a vacuum level of 0.075–0.085 bar and a steam pulse to 1.00 bar for each pulse. Indicators were exposed in the sterilizer for between 7 and 13 minutes. This cycle is depicted in the time-pressure diagram in FIG. 5. After exposure the inner containers containing the enzyme substrate and nutrient medium were crushed and the indicators were incubated at 60° C. The indicators were examined for fluorescence using a 3M™ ATTEST™ Model 190 Rapid Autoreader, commercially available from 3M Company, St. Paul, Minn. Additionally, spore growth, as indicated by a color change from purple to yellow, was determined visually after 168 hours of incubation at 60° C. […]

[4] = system: Bacillus stearothermophilus spores; test: Spore outgrowth (color change) of indicators after prevacuum steam sterilization; assay type: cell-based; settings: 4-pulse prevacuum steam 121° C.
Method: as §5, §6, §7, §8, §9

[5] = Example 4, 50 mg/ml coating, 7–18 min
[6] = Example 4, 100 mg/ml coating, 7–18 min
[7] = Example 5, 50 mg/ml coating, 7–13 min
[8] = Example 5, 100 mg/ml coating, 7–13 min

Hexaglyn Di-Stearate
100%: FLUORESCENCE - PERCENT POSITIVE 1 HR ([1]; Example 8, 25 mg/ml coating) | FLUORESCENCE - PERCENT POSITIVE 2 HR ([1]; Example 8, 25 mg/ml coating) | FLUORESCENCE - PERCENT POSITIVE 3 HR ([1]; Example 8, 25 mg/ml coating) | FLUORESCENCE - PERCENT POSITIVE 4 HR ([1]; Example 8, 25 mg/ml coating) | FLUORESCENCE - PERCENT POSITIVE 5 HR ([1]; Example 8, 25 mg/ml coating) | FLUORESCENCE - PERCENT POSITIVE 1 HR ([1]; Example 8, 50 mg/ml coating) | FLUORESCENCE - PERCENT POSITIVE 2 HR ([1]; Example 8, 50 mg/ml coating) | FLUORESCENCE - PERCENT POSITIVE 3 HR ([1]; Example 8, 50 mg/ml coating) | FLUORESCENCE - PERCENT POSITIVE 4 HR ([1]; Example 8, 50 mg/ml coating) | FLUORESCENCE - PERCENT POSITIVE 5 HR ([1]; Example 8, 50 mg/ml coating) | FLUORESCENCE - PERCENT POSITIVE 1 HR ([1]; Example 8, 100 mg/ml coating) | FLUORESCENCE - PERCENT POSITIVE 2 HR ([1]; Example 8, 100 mg/ml coating) | FLUORESCENCE - PERCENT POSITIVE 3 HR ([1]; Example 8, 100 mg/ml coating) | FLUORESCENCE - PERCENT POSITIVE 4 HR ([1]; Example 8, 100 mg/ml coating) | FLUORESCENCE - PERCENT POSITIVE 5 HR ([1]; Example 8, 100 mg/ml coating)
improved: accuracy of sterilization indicators compared to indicators made with untreated spores ([1]; 1–3 hours after exposure)
16: NO. GROWTH POSITIVE 168 HR ([2]; Example 8, 25 mg/ml coating) | NO. GROWTH POSITIVE 168 HR ([2]; Example 8, 50 mg/ml coating) | NO. GROWTH POSITIVE 168 HR ([2]; Example 8, 100 mg/ml coating)

Hexaglyceryl Dioleate
66.7%: FLUORESCENCE - PERCENT POSITIVE 1 HR ([1]; Example 6, 50 mg/ml coating)
0%: FLUORESCENCE - PERCENT POSITIVE 1 HR [3, 5] | FLUORESCENCE - PERCENT POSITIVE 2 HR [3, 5] | FLUORESCENCE - PERCENT POSITIVE 3 HR [3, 5] | FLUORESCENCE - PERCENT POSITIVE 4 HR [3, 5] | FLUORESCENCE - PERCENT POSITIVE 1 HR [3, 6] | FLUORESCENCE - PERCENT POSITIVE 2 HR [3, 6] | FLUORESCENCE - PERCENT POSITIVE 3 HR [3, 6] | FLUORESCENCE - PERCENT POSITIVE 4 HR [3, 6]
23: NO. GROWTH POSITIVE 168 HR [4, 6]
6: NO. GROWTH POSITIVE 168 HR ([2]; Example 6, 50 mg/ml coating)
7: NO. GROWTH POSITIVE 168 HR [4, 5]
100%: FLUORESCENCE - PERCENT POSITIVE 2 HR ([1]; Example 6, 50 mg/ml coating) | FLUORESCENCE - PERCENT POSITIVE 3 HR ([1]; Example 6, 50 mg/ml coating) | FLUORESCENCE - PERCENT POSITIVE 4 HR ([1]; Example 6, 50 mg/ml coating) | FLUORESCENCE - PERCENT POSITIVE 5 HR ([1]; Example 6, 50 mg/ml coating)

polyoxyethylene (20) sorbitan monostearate [POE(20) Sorbitan Monostearate]
5: NO. GROWTH POSITIVE 168 HR [4, 7]
75%: FLUORESCENCE - PERCENT POSITIVE 4 HR ([1]; Example 7, 100 mg/ml coating) | FLUORESCENCE - PERCENT POSITIVE 5 HR ([1]; Example 7, 100 mg/ml coating)
6: NO. GROWTH POSITIVE 168 HR ([2]; Example 7, 50 mg/ml coating)
0%: FLUORESCENCE - PERCENT POSITIVE 1 HR [3, 7] | FLUORESCENCE - PERCENT POSITIVE 2 HR [3, 7] | FLUORESCENCE - PERCENT POSITIVE 3 HR [3, 7] | FLUORESCENCE - PERCENT POSITIVE 4 HR [3, 7] | FLUORESCENCE - PERCENT POSITIVE 1 HR [3, 8] | FLUORESCENCE - PERCENT POSITIVE 2 HR [3, 8] | FLUORESCENCE - PERCENT POSITIVE 3 HR [3, 8] | FLUORESCENCE - PERCENT POSITIVE 4 HR [3, 8]
50%: FLUORESCENCE - PERCENT POSITIVE 1 HR ([1]; Example 7, 100 mg/ml coating) | FLUORESCENCE - PERCENT POSITIVE 2 HR ([1]; Example 7, 100 mg/ml coating)
62.5%: FLUORESCENCE - PERCENT POSITIVE 3 HR ([1]; Example 7, 100 mg/ml coating)
improved: accuracy of sterilization indicators compared to indicators made with untreated spores ([1]; 2–3 hours after exposure)
2: NO. GROWTH POSITIVE 168 HR [4, 8]
100%: FLUORESCENCE - PERCENT POSITIVE 1 HR ([1]; Example 7, 50 mg/ml coating) | FLUORESCENCE - PERCENT POSITIVE 2 HR ([1]; Example 7, 50 mg/ml coating) | FLUORESCENCE - PERCENT POSITIVE 3 HR ([1]; Example 7, 50 mg/ml coating) | FLUORESCENCE - PERCENT POSITIVE 4 HR ([1]; Example 7, 50 mg/ml coating) | FLUORESCENCE - PERCENT POSITIVE 5 HR ([1]; Example 7, 50 mg/ml coating)
8: NO. GROWTH POSITIVE 168 HR ([2]; Example 7, 100 mg/ml coating)
